A short description of data set [1]: Plasma incubations (human plasma stability). Also: tested at 25 µM. The format is in vitro ADME. The following applies: 37° C.
Experimental: Aliquots were removed at 2 and 60 minutes and quenched with an equal volume of cold acetonitrile. After mixing vigorously, the precipitated protein matter was removed by filtration (Multiscreen Solvinert filter plates, Millipore, Bedford, Mass., USA) and the filtrate analysed by reverse phase HPLC with mass spectrometric detection, using single ion monitoring of the [M+H]^+ species. Metabolic turnover was determined by comparison of peak areas from the ion chromatograms of the parent compound at 2 and 60 minutes and expressed as percent remaining at 1 hour.
The nature of data set [2]: LogD determinations. Type of data set: physicochemical. The following applies: Ion-count method; for logD at 1 h: 1-octanol/phosphate buffered saline, pH 7.4, pH 7.4.
Experimental: LogD(PBS) determinations were performed in 96 well microtitre plates using a miniaturised “shake-flask” method. […] The plates were then capped and mixed vigorously for 1 hour on a microtitre plate shaker, after which they were left to stand, allowing the PBS and octanol phases to separate. The PBS layer was analysed by reverse phase HPLC with mass spectrometric detection, using single ion monitoring of the [M+H]^+ species.
Where AUCstd and AUCpbs are the peak areas from the standard and test ion chromatograms respectively.
For data set [3] the following is noted: UV method, literature value; cited from earlier work.
Data set [4] addresses T1, cathepsin K (Homo sapiens, UniProt P43235).
T1 sequence (P43235 115-329): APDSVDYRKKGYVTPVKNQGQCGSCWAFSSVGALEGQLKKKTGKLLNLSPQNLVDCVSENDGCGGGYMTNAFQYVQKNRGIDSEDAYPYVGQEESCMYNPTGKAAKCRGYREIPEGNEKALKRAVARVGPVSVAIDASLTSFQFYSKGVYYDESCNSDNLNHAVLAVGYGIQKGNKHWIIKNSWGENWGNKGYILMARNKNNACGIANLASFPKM
Kind of data set: In vitro cathepsin Ki inhibition measurements. The format is biochemical. The following applies: human recombinant cathepsin K; read-out: In vitro Ki (nM) vs Cath K. Details: purchased B. Turk, Josef Stefan Institute, Ljubljana, Slovenia. Here is the method:
Stock solutions of substrate or inhibitor were made up to 10 mM in 100% dimethylsulfoxide (DMSO) (Rathburns, Glasgow, U.K.) and diluted as appropriately required. In all cases the DMSO concentration in the assays was maintained at less than 1% (vol./vol.). The equilibrium inhibition constants (Ki^SS) for each compound were measured under steady-state conditions monitoring enzyme activity as a function of inhibitor concentration. The values were calculated on the assumption of pure competitive behaviour (Cornish-Bowden, A. Fundamentals of enzyme kinetics Portland Press; 1995, 93-128). Human recombinant cathepsin K (0.25 nM final; B. Turk, Josef, Stefan Institute, Ljubljana, Slovenia), was routinely assayed in 100 mM sodium acetate; pH 5.5 containing 1 mM EDTA, 10 mM L-cysteine and 1.8 μM Z-Leu-Arg-AMC ([S]═KM).
The apparent inhibition constant (Ki) for each compound was determined on the basis that inhibition was reversible and occurred by a pure-competitive mechanism. The Ki values were calculated, from the dependence of enzyme activity as a function of inhibitor concentration, by direct regression analysis (Prism v 3.02) using Equation 2 (Cornish-Bowden, A., 1995).
In situations where the apparent dissociation constant (Ki^app) approached the enzyme concentrations, the Ki^app values were calculated using a quadratic solution in the form described by Equation 3 (Morrison, J. F. Trends Biochem. Sci., 7, 102-105, 1982; Morrison, J. F. Biochim. Biophys. Acta, 185, 269-286, 1969; Stone, S. R. and Hofsteenge, J. Biochemistry, 25, 4622-4628, 1986).
Curves were fitted by non-linear regression analysis (Prism) using a fixed value for the enzyme concentration. Equation 4 was used to account for the substrate kinetics, where ‘Ki’ is the inhibition constant, ‘[So]’ is the initial substrate concentration and ‘KM^app’ is the apparent macroscopic binding (Michaelis) constant for the substrate (Morrison, 1982).

Data set [5] concerns human osteoclasts. Kind of data set: Human osteoclast resorption assay. Type of data set: cell-based. The following applies: for inhibition at 1 µM: Homo sapiens, Osteoclast, 48 h, 1 □ M, read-out: Cell-based % Inh. @ 1 □ M Human. Here is the method: Bone resorption was studied using a model where human osteoclast precursor cells were cultured on bovine bone slices for 9 days and allowed to differentiate into bone-resorbing osteoclasts. The formed mature osteoclasts were then allowed to resorb bone. The assay was performed by Pharmatest Services Ltd, Itäinen Pitkakatu 4C, Turku, Finland. After the culture period, bone collagen degradation products were quantified from the culture medium as an index of bone resorption. Inhibitor compounds were added into the cell cultures after the differentiation period and their effects on the resorbing activity of mature osteoclasts were determined. The studies included a baseline group without added compounds and a positive control group where a potent cathepsin K inhibitor E-64 was added.
Human peripheral blood monocytes were suspended to culture medium and allowed to attach to bovine bone slices. The bone slices were transferred into 96-well tissue culture plates containing culture medium with appropriate amounts of important growth factors favouring osteoclast differentiation, including M-CSF, RANK-ligand and TGF-[…]. The cells were incubated in a CO2 incubator in humidified atmosphere of 95% air and 5% carbon dioxide at 37° C. At day 7 when osteoclast differentiation was complete, the culture medium was replaced with culture medium containing conditions favouring osteoclast activity. The cell culture was continued for an additional 2 days, during which the formed mature osteoclasts were allowed to resorb bone in the presence of vehicle, control inhibitor (E64) or test compounds. At the end of the culture, bone collagen degradation products released into the culture medium were determined using a commercially available ELISA method (CrossLaps® for culture, Nordic Bioscience, Herlev, Denmark) as an index of bone resorption (see Bagger, Y. Z. et al, J. Bone. Miner. Res. 14 (suppl. 1), S370).

In data set [6] the test system is human osteoclasts. The following applies: human osteoclast, literature value; cited from earlier work.

With `CC(C)C[C@H](NC(=O)c1ccc(N2CCN(C)CC2)cc1)C(=O)N1CC[C@H]2OCC(=O)[C@H]21` [reference compound], the “Human Plasma Stability % rem. @ 1 h” value in data set [1] amounted to 95%. Moreover, the log distribution coefficient (logD) at 1 h in data set [2] is 0.56. Besides, the “LogD pH 7.4 (Lit.)” value in data set [3] is on record as 0.04. Besides, in data set [4], the inhibitory constant (Ki) stood at 8.7 nM.
With `COCCN1CCN(c2ccc(C(=O)N[C@@H](CC(C)C)C(=O)N3C[C@H](O)[C@H]4OCC(=O)[C@H]43)cc2)CC1` [Example 25, N—((S)-1-((3aS,6S,6aS)-6-hydroxy-3-oxodihydro-2H-furo[3,2-b]pyrrol-4(5H,6H,6aH)-yl)-4-methyl-1-oxopentan-2-yl)-4-(4-(2-methoxyethyl)piperazin-1-yl)benzamide], in data set [5], the inhibition at 1 µM lay within 25 to 54%. For the same compound, the “Human Plasma Stability % rem. @ 1 h” value in data set [1] was 92%. The “LogD pH 7.4” value in data set [2] was found to be 0.56. Moreover, in data set [4], the Ki turned out to be 6.9 nM.
Take `CCN1CCN(c2ccc(C(=O)N[C@@H](CC(C)(C)C)C(=O)N3C[C@@H](OC)[C@H]4OCC(=O)[C@H]43)cc2)CC1` [Example 8, 4-(4-ethylpiperazin-1-yl)-N—((S)-1-((3aS,6R,6aS)-6-methoxy-3-oxodihydro-2H-furo[3,2-b]pyrrol-4(5H,6H,6aH)-yl)-4,4-dimethyl-1-oxopentan-2-yl)benzamide]: the inhibition at 1 µM in data set [5] lay within 63 to 88%. In data set [1], the “Human Plasma Stability % rem. @ 1 h” value came to 92%. Besides, in data set [2], the pH-dependent lipophilicity (logD) at 1 h was above 0.8 and the “LogD pH 7.4” value was 1.09. The Ki in data set [4] was 9.2 nM.
The matching figures for `CO[C@H]1CN(C(=O)[C@H](CC(C)C)NC(=O)c2ccc(N3CCN(C)CC3)cc2)[C@@H]2C(=O)CO[C@H]12` [Example 1, N—((S)-1-((3aS,6S,6aS)-6-methoxy-3-oxodihydro-2H-furo[3,2-b]pyrrol-4(5H,6H,6aH)-yl)-4-methyl-1-oxopentan-2-yl)-4-(4-methylpiperazin-1-yl)benzamide]: 63 to 88%, 96%, above 0.8, 1.18 and 5.6 nM.
`CC(C)C[C@H](NC(=O)c1ccc(C(C)(C)C)cc1)C(=O)N1CC[C@H]2OCC(=O)[C@H]21` [reference compound]: the “Human Plasma Stability % rem. @ 1 h” value in data set [1] is 75%. In data set [2], this compound registered a logD at 1 h of 1.36. The “Cell-based % Inh. @ 1 □ M Human (Lit.)” value in data set [6] is listed as “Lit. 60%”.
As to `CO[C@H]1CN(C(=O)[C@@H](NC(=O)c2ccc(N3CCN(C)CC3)cc2)C2CCCC2)[C@@H]2C(=O)CO[C@H]12`, in data set [5] (read-out: Cell-based Human IC50), the IC50 is 52 nM. For the same compound, in data set [1], the “Human Plasma Stability % rem. @ 1 h” value is reported as 93.6%. Further, in data set [2], the logD at 1 h is 1.36. The Ki in data set [4] is 1.8 nM.
Turning to `CCN1CCN(c2ccc(C(=O)N[C@@H](CC(C)C)C(=O)N3C[C@@H](OC)[C@H]4OCC(=O)[C@H]43)cc2)CC1` [Example 7, 4-(4-ethylpiperazin-1-yl)-N—((S)-1-((3aS,6R,6aS)-6-methoxy-3-oxodihydro-2H-furo[3,2-b]pyrrol-4(5H,6H,6aH)-yl)-4-methyl-1-oxopentan-2-yl)benzamide], in data set [5], the inhibition at 1 µM lay within 63 to 88%. The “Human Plasma Stability % rem. @ 1 h” value in data set [1] is recorded as 93%. Moreover, in data set [2], the log distribution coefficient (logD) at 1 h was above 0.8 and the “LogD pH 7.4” value is given as 0.89. Further, in data set [4], the Ki is 9.9 nM.

Source of the values: patent publication US7803803B2, “Tetrahydrofuro[3,2-B] pyrrol-3-ones as cathepsin K inhibitors” (Amura Therapeutics Limited, priority 2007, dated 2010).
